Data on 28 compounds can be found in US7601728B2, “Bicyclic pyrrole derivatives” (Dainippon Sumitomo Pharma Co., Ltd., priority 2004, dated 2009).

Broadly, the IC50 is the concentration at which inhibition is half-maximal.

Each structure is given as a SMILES string. Structures can show the parent of a compound that is named as a salt.

T1 sequence (P27487 39-766 limits assumed): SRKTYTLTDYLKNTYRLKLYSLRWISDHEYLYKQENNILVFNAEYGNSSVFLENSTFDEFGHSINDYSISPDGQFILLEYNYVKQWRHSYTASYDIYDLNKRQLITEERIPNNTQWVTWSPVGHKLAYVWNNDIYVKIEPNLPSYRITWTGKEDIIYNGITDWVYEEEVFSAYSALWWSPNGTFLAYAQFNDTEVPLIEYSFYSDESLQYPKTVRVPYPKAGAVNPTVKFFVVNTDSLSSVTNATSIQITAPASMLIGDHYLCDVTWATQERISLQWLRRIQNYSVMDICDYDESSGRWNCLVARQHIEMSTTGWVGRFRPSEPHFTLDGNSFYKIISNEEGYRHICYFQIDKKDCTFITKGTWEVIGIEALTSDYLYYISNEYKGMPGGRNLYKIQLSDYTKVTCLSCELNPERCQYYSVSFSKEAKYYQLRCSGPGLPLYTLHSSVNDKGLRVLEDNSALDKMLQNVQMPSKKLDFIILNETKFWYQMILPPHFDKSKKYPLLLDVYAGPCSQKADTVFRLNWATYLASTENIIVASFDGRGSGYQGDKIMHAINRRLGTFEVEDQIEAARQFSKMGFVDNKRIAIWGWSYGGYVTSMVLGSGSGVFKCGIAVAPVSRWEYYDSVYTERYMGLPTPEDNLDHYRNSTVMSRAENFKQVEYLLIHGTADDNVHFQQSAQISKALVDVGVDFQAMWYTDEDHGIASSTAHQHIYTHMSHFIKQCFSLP

The experiment has as its target T1, Human DPP IV (Homo sapiens, UniProt P27487).
T1 construct: Human serum containing DPP-IV enzyme was diluted finally 9- to 20-fold with assay buffer; from tissue; host or cells: human serum
Briefly: In Vitro DPP-IV Inhibitory Effect Measurement Test. In kind it is biochemical. Conditions: human serum containing DPP-IV enzyme; substrate Glycyl-L-Proline 4-Methyl-Coumaryl-7-Amide 10 to 100 μM; room temperature; fluorescence 360/460 nm; read-out: Human DPP IV inhibiting activity IC50. The procedure:
In Vitro DPP-IV Inhibitory Effect Measurement Test
Human serum containing DPP-IV enzyme was diluted finally 9- to 20-fold with assay buffer and added to a microassay plate. Each of solutions of each test compound having various concentrations was added thereto, followed by adding thereto a substrate (Glycyl-L-Proline 4-Methyl-Coumaryl-7-Amide, Peptide Laboratories Co., Ltd.) to a final concentration of 10 to 100 μM, and the reaction was carried out at room temperature. Acetic acid was added thereto to a final concentration of 0.5% to terminate the reaction, and the intensity of fluorescence at an excitation wavelength of 360 nm and a measuring wavelength of 460 nm was measured by the use of a fluorescent plate reader.
Take `CCOc1cccc(Oc2nc3c(C#N)c(N4CCC[C@@H](N)C4)n(Cc4ccccc4Cl)c3c(=O)n2C)c1` [Example 1, 6-[(3R)-3-Aminopiperidin-1-yl]-5-(2-chlorobenzyl)-2-(3-ethoxyphenoxy)-3-methyl-4-oxo-4,5-dihydro-3H-pyrrolo[3,2-d]pyrimidine-7-carbonitrile hydrochloride]: the IC50 amounted to 0.076 µM.

On to `Cn1c(=O)c2c(c(C#N)c(N3CCC[C@@H](N)C3)n2Cc2ccccc2Cl)n(C)c1=O` [Example 2, 6-[(3R)-3-Aminopiperidin-1-yl]-5-(2-chlorobenzyl)-1,3-dimethyl-2,4-dioxo-2,3,4,5-tetrahydro-1H-pyrrolo[3,2-d]pyrimidine-7-carbonitrile hydrochloride], for which the IC50 came to 0.021 µM.

For the compound `Cn1c(O)nc2c(C#N)c(N3CCC[C@@H](N)C3)n(Cc3ccccc3Cl)c2c1=O` [Example 3, 6-[(3R)-3-Aminopiperidin-1-yl]-5-(2-chlorobenzyl)-2-hydroxy-3-methyl-4-oxo-4,5-dihydro-3H-pyrrolo[3,2-d]pyrimidine-7-carbonitrile hydrochloride], the IC50 came out at 0.026 µM.

As to `Cn1c(S(C)(=O)=O)nc2c(C#N)c(N3CCC[C@@H](N)C3)n(Cc3ccccc3Cl)c2c1=O` [Example 4, 6-[(3R)-3-Aminopiperidin-1-yl]-5-(2-chlorobenzyl)-3-methyl-2-(methylsulfonyl)-4-oxo-4,5-dihydro-3H-pyrrolo[3,2-d]pyrimidine-7-carbonitrile hydrochloride], the IC50 stood at 0.028 µM.

Regarding `Cn1c(=O)c2c(cc(N3CCC[C@@H](N)C3)n2Cc2ccccc2Cl)n(C)c1=O` [Example 5, 6-(3-Aminopiperidin-1-yl)-5-(2-chlorobenzyl)-1,3-dimethyl-1H-pyrrolo[3,2-d]pyrimidine-2,4(3H,5H)-dione hydrochloride], the 50% inhibitory concentration (IC50) amounted to 0.015 µM.

On to `Cn1c(=O)c2c(cc(N3CCC[C@@H](N)C3)n2Cc2cc(F)ccc2Cl)n(C)c1=O` [Example 6, 6-(3-Aminopiperidin-1-yl)-5-(2-chloro-5-fluorobenzyl)-1,3-dimethyl-1H-pyrrolo[3,2-d]pyrimidine-2,4(3H,5H)-dione hydrochloride], for which the half-inhibitory concentration (IC50) was determined as 0.0019 µM.

Regarding `Cn1c(Oc2ccccc2C(N)=O)nc2c(C#N)c(N3CCC[C@@H](N)C3)n(Cc3ccccc3Cl)c2c1=O` [Example 7, 2-{[6-(3-Aminopiperidin-1-yl)-5-(2-chlorobenzyl)-7-cyano-3-methyl-4-oxo-4,5-dihydro-3H-pyrrolo[3,2-d]pyrimidin-2-yl]oxy}benzamide hydrochloride], the IC50 came out at 0.06 µM.

With `Cn1c(=O)c2c(cc(N3CCC[C@@H](N)C3)n2Cc2ccccc2C#N)n(C)c1=O` [Example 8], the IC50 came out at 0.0074 µM.

On to `CC#CCn1c(N2CCC[C@@H](N)C2)cc2c1c(=O)n(C)c(=O)n2C` [Example 14], for which the IC50 was 0.055 µM.

For `Cn1c(=O)n(Cc2cc3ccccc3cn2)c(=O)c2c1cc(N1CCC[C@@H](N)C1)n2Cc1cc(F)ccc1Cl` [Example 18], the IC50 was found to be 0.012 µM.

Turning to `Cn1c(=O)n(CC(=O)c2ccccc2)c(=O)c2c1cc(N1CCC[C@@H](N)C1)n2Cc1cc(F)ccc1Cl` [Example 19], the IC50 turned out to be 0.0071 µM.

As for `Cn1c(=O)[nH]c(=O)c2c1cc(N1CCC[C@@H](N)C1)n2Cc1cc(F)ccc1Cl` [Example 20], the IC50 worked out at 0.0043 µM.

`CCOC(=O)c1c(N2CCC[C@@H](N)C2)n(Cc2ccccc2Cl)c2c(=O)n(C)c(=O)n(C)c12` [Example 24]: the IC50 was 0.044 µM.

As for `CN(C)C(=O)c1c(N2CCC[C@@H](N)C2)n(Cc2ccccc2Cl)c2c(=O)n(C)c(=O)n(C)c12` [Example 25], the IC50 was 0.0076 µM.

In the case of `Cn1c(=O)c2c(c(C(=O)N3CCCC3)c(N3CCC[C@@H](N)C3)n2Cc2ccccc2Cl)n(C)c1=O` [Example 27], the IC50 turned out to be 0.0098 µM.

On to `Cn1c(=O)c2c(c(C(=O)NCC(O)CO)c(N3CCC[C@@H](N)C3)n2Cc2ccccc2Cl)n(C)c1=O` (stereo partly shown) [Example 32], for which the IC50 was found to be 0.0075 µM.

As to `Cn1c(=O)c2c(c(C(=O)N3CCC(O)CC3)c(N3CCC[C@@H](N)C3)n2Cc2ccccc2Cl)n(C)c1=O` [Example 33], the IC50 came to 0.012 µM.

In the case of `Cn1c(=O)c2c(c(C(=O)NC3CCC3)c(N3CCC[C@@H](N)C3)n2Cc2cc(F)ccc2Cl)n(C)c1=O` [Example 40], the IC50 was determined as 0.0068 µM.

For the compound `COCCNC(=O)c1c(N2CCC[C@@H](N)C2)n(Cc2cc(F)ccc2Cl)c2c(=O)n(C)c(=O)n(C)c12` [Example 41], the IC50 was 0.0041 µM.

`Cn1c(=O)c2c(c(C(=O)NCC(F)(F)F)c(N3CCC[C@@H](N)C3)n2Cc2cc(F)ccc2Cl)n(C)c1=O` [Example 42]: the 50% inhibitory concentration (IC50) worked out at 0.0057 µM.

As to `Cn1c(=O)c2c(c(C(=O)N3CCOCC3)c(N3CCC[C@@H](N)C3)n2Cc2cc(F)ccc2Cl)n(C)c1=O` [Example 44], the IC50 turned out to be 0.009 µM.

Turning to `COCc1c(N2CCC[C@@H](N)C2)n(Cc2ccccc2Cl)c2c(=O)n(C)c(=O)n(C)c12` [Example 56], the IC50 came to 0.031 µM.

Regarding `CC(=O)c1c(N2CCC[C@@H](N)C2)n(Cc2ccccc2Cl)c2c(=O)n(C)c(=O)n(C)c12` [Example 61], the half-inhibitory concentration (IC50) worked out at 0.085 µM.

Consider `COc1ccc(-c2c(N3CCC[C@@H](N)C3)n(Cc3ccccc3Cl)c3c(=O)n(C)c(=O)n(C)c23)cc1` [Example 62], for which the IC50 worked out at 0.056 µM.

In the case of `Cn1cnc2cc(N3CCC[C@@H](N)C3)n(Cc3cc(F)ccc3Cl)c2c1=O` [Example 64], the IC50 turned out to be 0.013 µM.

`Cn1cnc2c(C(=O)N3CCOCC3)c(N3CCC[C@@H](N)C3)n(Cc3cc(F)ccc3Cl)c2c1=O` [Example 66]: the IC50 amounted to 0.0055 µM.

For the compound `Cn1c(=O)c2c(c(C#N)c(N3CCC[C@H](N)C3)n2Cc2cc(F)ccc2Cl)n(C)c1=O` [Example 70, 6-[(3S)-3-Aminopiperidin-1-yl]-5-(2-chloro-5-fluorobenzyl)-1,3-dimethyl-2,4-dioxo-2,3,4,5-tetrahydro-1H-pyrrolo[3,2-d]pyrimidine-7-carbonitrile hydrochloride], the IC50 was 3.8 µM.

For `CCOC(=O)c1c(N)c(C#N)c(N2CCC[C@@H](N)C2)n1Cc1ccccc1Cl` [Example 72, Ethyl 3-amino-5-[(3R)-3-aminopiperidin-1-yl]-1-(2-chlorobenzyl)-4-cyano-1H-pyrrole-2-carboxylate hydrochloride], the IC50 amounted to 1.2 µM.
